Laboratory results published in patent US20260317272A1, “USE OF STROBILURIN TYPE COMPOUNDS FOR COMBATING PHYTOPATHOGENIC FUNGI CONTAINING AN AMINO ACID SUBSTITION F129L IN THE MITOCHONDRIAL CYTOCHROME B PROTEIN CONFERRING RESISTANCE TO QO INHIBITORS XVI” (priority 2023, published 2026).

Experiments:
Puccinia triticina [1] = test: Use Example 15: activity against Puccinia triticina (PUCCRT, brown rust on wheat) in field; type: in vivo; settings: for Efficacy, %: Abbot's formula, B23; for infection rate, %: B23 (23 days after second treatment), flag leaf
Description: Use Example 15. Activity Against Puccinia triticina (PUCCRT, Brown Rust on Wheat) in Field
Trials were conducted under field conditions in Spain. Spring wheat was planted and grown with adequate supply of water and nutrients. Two applications (A and B) of the test compounds were made at onset of disease (application A) and at second application at an interval of 22 days (application B). The spray solutions were prepared by mixing experimental formulations of the test compounds (50 g/L EC) in water, adding 124 g/ha Plurafac LF301 and Plurafac LF1312 (BASF, low-foaming non-ionic surfactants consisting of alkoxylated, predominantly unbranched fatty alcohols containing higher alkene oxides alongside ethylene oxide), respectively. The spray solutions were applied with 300 I/ha spray volume with a flat fan nozzle.
The infestation levels for brown rust (Puccinia triticina) were evaluated 23 days after the second fungicide treatment (B23), a mean value across the flag leaf level was calculated. In addition, efficacy was calculated using Abbot's formula as in use example 14.

Pyrenophora teres = test: Use Example 11: control of net blotch on barley (PYRNTE P1); type: in vivo, Pyrenophora (syn. Drechslera) teres; settings: F129L strain, inoculated the next day, 16 ppm, untreated 75%
Description: (§1) The compound was dissolved in a mixture of acetone and/or dimethylsulfoxide and the wetting agent/emulsifier Wettol, which is based on ethoxylated alkylphenoles, in a ratio (volume) solvent-emulsifier of 99 to 1 to give a total volume of 5 ml. Subsequently, water was added to total volume of 100 ml. This stock solution was then diluted with the described solvent-emulsifier-water mixture to the final concentration given in the tables below.
Use Example 11. Control of Net Blotch on Barley Caused by Pyrenophora teres (PYRNTE P1)
The first fully developed leaves of potted barley plants were sprayed to run-off previously described spray solution, containing the concentration of active ingredient or their mixture mentioned in the table below. The next day the treated plants were inoculated with an aqueous spore suspension Pyrenophora (syn. Drechslera) teres. The strain used contains the amino acid substitution F129L in the mitochondrial cytochrome b protein conferring resistance to Qo inhibitors. Then the trial plants were cultivated for up to 19 days at 20-24° C. and a relative humidity close to 70%, the extent of fungal attack on the leaves was visually assessed as % diseased leaf area.

Puccinia triticina [2] = test: Use Example 6: preventative control of brown rust on wheat (PUCCRT P7); type: in vivo, Puccinia triticina (syn. P. recondita); settings: 16 ppm, seven days before inoculation, 9 to 12 days, untreated 85
Description: as §1
Use Example 6. Preventative Control of Brown Rust on Wheat Caused by Puccinia triticina (Syn. P. recondita) (PUCCRT P7)
The first two developed leaves of potted wheat seedling were sprayed to run-off with previously described spray solution, containing the concentration of active ingredient or their mixture as described below. Seven days later the plants were dusted with spores of Puccinia triticina. To ensure the success of the artificial inoculation, the plants were transferred to a humid chamber without light and a relative humidity of 95 to 99% and 20 to 24° C. for 24 h. Then the trial plants were cultivated for 9 to 12 days in a greenhouse chamber at 20 to 24° C. and a relative humidity between 65 and 70%. The extent of fungal attack on the leaves was visually assessed as % diseased leaf area.

Phakopsora pachyrhizi [3] = test: Use Example 14: activity against Asian soybean rust under semi field conditions; type: in vivo; settings: 100 g a.i./ha; for B14 Efficacy, % / Efficacy, %: Abbot's formula; for B14 Efficacy, % / B14 infection rate, %: 14 days after second application, semi field, Brazil; for B14 infection rate, %: sprayed twice, 14 day interval; for Efficacy, %: B14; for infection rate, %: B14 (14 days after second application)
Description: Use Example 14. Activity Against Asian Soybean Rust (Phakopsora pachyrhizi) Under Semi Field Conditions
Soybeans were grown in an area covered with an insect proof net under natural temperature and light regime in Brazil. Seeds were sown in a tray, allowed to germinate and grow for 14-23 days, and afterwards transplanted to containers. Subsequently, the plants were grown for another 27-35 days before spray application.
The soybean plants were sprayed twice at a spray interval of 14 days. The spray solutions were prepared by mixing experimental formulations (100 g/l SC), in water, adding the adjuvant Mees™ (BASF, soybean oil methyl ester 824.3 g/L, EC) at 0.5 I/ha. The plants were sprayed in a mobile spray cabinet with a horizontal boom. The spray solutions were applied with 500 L/ha spray volume with a flat fan nozzle.
The plants were inoculated with natural population of Phakopsora pachyrhizi spore suspension one day after each spray application. Plants were incubated in a mobile chamber with a misting system at saturated humidity following each inoculation.
Soybean rust infestation was assessed as percent infected leaf area at 14 days after second application (B14). These percent values were converted in efficacies. The efficacy (E) was calculated as follows using Abbot's formula: […]

Phakopsora pachyrhizi [4] = test: Use Example 5: protective control of soybean rust on soybeans (PHAKPA P9); type: in vivo; settings: 16 ppm, 9 days before inoculation, F129L strain, up to 14 days, untreated 85
Description: as §1
Use Example 5. Protective Control of Soybean Rust on Soybeans Caused by Phakopsora pachyrhizi (PHAKPA P9)
Leaves of potted soybean seedlings were sprayed to run-off with the previously described spray solution, containing the concentration of active ingredient or their mixture as described below. The plants were allowed to air-dry. The trial plants were cultivated for 9 days in a greenhouse chamber at 23-27° C. and a relative humidity between 60 and 80%. Then the plants were inoculated with spores of Phakopsora pachyrhizi. The strain used contains the amino acid substitution F129L in the mitochondrial cytochrome b protein conferring resistance to Qo inhibitors. To ensure the success of the artificial inoculation, the plants were transferred to a humid chamber with a relative humidity of about 95% and 20 to 24° C. for 24 h. The trial plants were cultivated for up to 14 days in a greenhouse chamber at 23-27° C. and a relative humidity between 60 and 80%. The extent of fungal attack on the leaves was visually assessed as % diseased leaf area.

Phakopsora pachyrhizi [5] = test: Use Example 3: protective control of soybean rust on soybeans (PHAKPA P2); type: in vivo; settings: 16 ppm, 2 days before inoculation, F129L strain, up to 14 days, untreated 90
Description: as §1
Use Example 3. Protective Control of Soybean Rust on Soybeans Caused by Phakopsora pachyrhizi (PHAKPA P2)
Leaves of potted soybean seedlings were sprayed to run-off with the previously described spray solution, containing the concentration of active ingredient or their mixture as described below. The plants were allowed to air-dry. The trial plants were cultivated for 2 days in a greenhouse chamber at 23-27° C. and a relative humidity between 60 and 80%. Then the plants were inoculated with spores of Phakopsora pachyrhizi. The strain used contains the amino acid substitution F129L in the mitochondrial cytochrome b protein conferring resistance to Qo inhibitors. To ensure the success the artificial inoculation, the plants were transferred to a humid chamber with a relative humidity of about 95% and 20 to 24° C. for 24 hr. The trial plants were cultivated for up to 14 days in a greenhouse chamber at 23 to 27° C. and a relative humidity between 60 and 80%. The extent of fungal attack on the leaves was visually assessed as % diseased leaf area, the disease level of untreated controls was usually higher than 85%.

[6] = Table 8, 75 g a.i./ha, untreated infection 75%
[7] = Table 8, 150 g a.i./ha, untreated infection 75%
[8] = Table 8, 75 g a.i./ha, untreated 75%
[9] = Table 8, 150 g a.i./ha, untreated 75%
[10] = Table 3, untreated infection 56
[11] = Table 5, untreated infection 71%
[12] = Table 10, 75 g a.i./ha, untreated infection 50%
[13] = Table 10, 150 g a.i./ha, untreated infection 50%
[14] = Table 10, 75 g a.i./ha, untreated 50%
[15] = Table 10, 150 g a.i./ha, untreated 50%

Structure (SMILES)	Efficacy, % (Puccinia triticina [1]; [6]) [%]	Efficacy, % (Puccinia triticina [1]; [7]) [%]	infection rate, % (Puccinia triticina [1]; [8]) [%]	infection rate, % (Puccinia triticina [1]; [9]) [%]	Diseased leaf area (%) (Pyrenophora teres)	Diseased leaf area (%) (Puccinia triticina [2])	Diseased leaf area (%) (Phakopsora pachyrhizi [4])	Diseased leaf area (%) (Phakopsora pachyrhizi [5])	also measured
CNC(=O)/C(=N/OC)c1cccc(C)c1CO/N=C(\COC)c1c(F)cc(F)cc1F [Compound 1, (2E)-2-methoxyimino-2-[2-[[(Z)-[2-methoxy-1-(2,4,6-trifluorophenyl)ethylidene]amino]oxymethyl]-3-methyl-phenyl]-N-methyl-acetamide]	60	89	30	8	5	10	0	0	B14 Efficacy, % (Phakopsora pachyrhizi [3]; [10]): 57%; B14 infection rate, % (Phakopsora pachyrhizi [3]; Table 3, untreated 56): 24%
COC/C(=N\OCc1c(C)cccc1/C(=N\OC)C(=O)OC)c1c(F)cc(F)cc1F [Compound 2, methyl (2E)-2-methoxyimino-2-[2-[[(Z)-[2-methoxy-1-(2,4,6-trifluorophenyl)ethylidene]amino]oxymethyl]-3-methyl-phenyl]acetate]	23	40	58	45	6		2	6	B14 Efficacy, % (Phakopsora pachyrhizi [3]; Table 4, untreated infection 52): 54%; B14 infection rate, % (Phakopsora pachyrhizi [3]; Table 4, untreated 52): 24%
CO/C=C(/C(=O)OC)c1cccc(C)c1CO/N=C(\COC)c1ccc(F)cc1Cl [Compound 3]					3	9	0	1	Efficacy, % (Puccinia triticina [1]; Table 9, 75 g a.i./ha, untreated infection 74%): 66%; Efficacy, % (Puccinia triticina [1]; Table 9, 150 g a.i./ha, untreated infection 74%): 73%; infection rate, % (Puccinia triticina [1]; Table 9, 75 g a.i./ha, untreated 74%): 25%; infection rate, % (Puccinia triticina [1]; Table 9, 150 g a.i./ha, untreated 74%): 20%; Efficacy, % (Phakopsora pachyrhizi [3]; [11]): 56%; infection rate, % (Phakopsora pachyrhizi [3]; Table 5, untreated 71%): 31%
CO/C=C(/C(=O)OC)c1cccc(C)c1CO/N=C(\COC)c1c(F)cc(F)cc1F [Compound 4, methyl (E)-3-methoxy-2-[2-[[(Z)-[2-methoxy-1-(2,4,6-trifluorophenyl)ethylidene]amino]oxymethyl]-3-methyl-phenyl]prop-2-enoate]	95	97	4	2	5	7	0	0	Efficacy, % (Phakopsora pachyrhizi [3]; Table 6, untreated infection 62%): 66%; infection rate, % (Phakopsora pachyrhizi [3]; Table 6, untreated 62%): 21%
CNC(=O)/C(=N/OC)c1cccc(C)c1CO/N=C(\COC)c1ccc(F)c(F)c1 [Compound 5, (2E)-2-[2-[[(Z)-[1-(3,4-difluorophenyl)-2-methoxy-ethylidene]amino]oxymethyl]-3-methylphenyl]-2-methoxyimino-N-methyl-acetamide]					3	6	1	0	Efficacy, % (Puccinia triticina [1]; [12]): 84%; Efficacy, % (Puccinia triticina [1]; [13]): 92%; infection rate, % (Puccinia triticina [1]; [14]): 8%; infection rate, % (Puccinia triticina [1]; [15]): 4%; B14 Efficacy, % (Phakopsora pachyrhizi [3]; [10]): 57%; B14 infection rate, % (Phakopsora pachyrhizi [3]; Table 3, untreated 56): 24%
CO/C=C(/C(=O)OC)c1cccc(C)c1CO/N=C(\COC)c1ccc(Cl)cc1Cl [Compound 6, methyl (E)-2-[2-[[(Z)-[1-(2,4-dichlorophenyl)-2-methoxy-ethylidene]amino]oxymethyl]-3-methyl-phenyl]-3-methoxy-prop-2-enoate]					7	11	9	13	Efficacy, % (Puccinia triticina [1]; [12]): 40%; Efficacy, % (Puccinia triticina [1]; [13]): 50%; infection rate, % (Puccinia triticina [1]; [14]): 30%; infection rate, % (Puccinia triticina [1]; [15]): 25%; Efficacy, % (Phakopsora pachyrhizi [3]; [11]): 56%; infection rate, % (Phakopsora pachyrhizi [3]; Table 5, untreated 71%): 31%
CNC(=O)/C(=N/OC)c1cccc(C)c1CO/N=C(\COC)c1c(F)cc(OC)cc1F [Compound 7, (2E)-2-[2-[[(Z)-[1-(2,6-difluoro-4-methoxy-phenyl)-2-methoxy-ethylidene]amino]oxymethyl]-3-methyl-phenyl]-2-methoxyimino-N-methyl-acetamide]	92	97	6	2		6	1	0	Efficacy, % (Phakopsora pachyrhizi [3]; Table 7, untreated infection 63%): 40%; infection rate, % (Phakopsora pachyrhizi [3]; Table 7, untreated 63%): 38%
